Results taken from the supplement of paper PMC10307832.

Columns and labels:
Test in all cases: relative viability (nuclei count vs DMSO), 5 days (fraction); higher = more cells survive
[1] = compound: COc1cccc2c1C(=O)c1c(O)c3c(c(O)c1C2=O)C[C@@](O)(C(=O)CO)C[C@@H]3O[C@H]1C[C@H](N)[C@H](O)[C@H](C)O1 [Doxorubicin] + CCNC(=O)c1noc(-c2cc(C(C)C)c(O)cc2O)c1-c1ccc(CN2CCOCC2)cc1 [Luminespib] (partner 0.01 µM)
Summary of the method: (§1)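 Cells from lung cancer lines were seeded into 1536-well plates and, one day later, dosed by pin tool. Treatments were either a single drug or a fixed dose of an anchor drug with five library-drug doses (not always all listed) in √10 steps. After 5 days, nuclei were stained in a one-step fixation (final 0.05% Triton X-100, 1% formaldehyde, 1 ug/ml Hoechst) and counted on 4× images, and relative viability is the treated-to-vehicle nuclei ratio, as the median of duplicate plates.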

[2] = compound: COC1=C(C=C(C=C1)C2=CC3=NC=CN3C(=N2)NC4=C(C=CC=N4)C(=O)N)OC [BAY61-3606] + COc1cccc2cc(-c3nc([C@H]4CC[C@H](C(=O)O)CC4)n4ncnc(N)c34)[nH]c12 [OSI-027] (partner 0.5 µM)
Summary of the method: as §1

[3] = compound: COc1cccc2c1C(=O)c1c(O)c3c(c(O)c1C2=O)C[C@@](O)(C(=O)CO)C[C@@H]3O[C@H]1C[C@H](N)[C@H](O)[C@H](C)O1 [Doxorubicin] + CS(=O)(=O)CCNCc1ccc(-c2ccc3ncnc(Nc4ccc(OCc5cccc(F)c5)c(Cl)c4)c3c2)o1 [Lapatinib] (partner 2 µM)
Summary of the method: as §1

[4] = compound: COc1cccc2c1C(=O)c1c(O)c3c(c(O)c1C2=O)C[C@@](O)(C(=O)CO)C[C@@H]3O[C@H]1C[C@H](N)[C@H](O)[C@H](C)O1 [Doxorubicin] + NC(=O)Nc1cc(-c2cccc(F)c2)sc1C(=O)N[C@H]1CCCNC1 [AZD7762] (partner 0.2 µM)
Summary of the method: as §1

| Cell Line | relative viability ([1]; first compound 0.001 µM) | relative viability ([1]; first compound 0.003162 µM) | relative viability ([1]; first compound 0.01 µM) | relative viability ([1]; first compound 0.03162 µM) | relative viability ([1]; first compound 0.1 µM) | relative viability ([2]; first compound 0.02 µM) | relative viability ([2]; first compound 0.06325 µM) | relative viability ([2]; first compound 0.2 µM) | relative viability ([2]; first compound 0.6325 µM) | relative viability ([2]; first compound 2 µM) | relative viability ([3]; first compound 0.001 µM) | relative viability ([3]; first compound 0.003162 µM) | relative viability ([3]; first compound 0.01 µM) | relative viability ([3]; first compound 0.03162 µM) | relative viability ([3]; first compound 0.1 µM) | relative viability ([4]; first compound 0.001 µM) | relative viability ([4]; first compound 0.003162 µM) | relative viability ([4]; first compound 0.01 µM) | relative viability ([4]; first compound 0.03162 µM) | relative viability ([4]; first compound 0.1 µM) |
| --- | --- | --- | --- | --- | --- | --- | --- | --- | --- | --- | --- | --- | --- | --- | --- | --- | --- | --- | --- | --- |
| HCC-827 | 0.555 | 0.379 | 0.602 | 0.573 | 0.566 | 0.698 | 0.845 | 0.817 | 0.803 | 0.787 | 0.322 | 0.322 | 0.182 | 0.201 | 0.22 | 0.134 | 0.214 | 0.197 | 0.191 | 0.174 |
| NCI-H1792 |  | 0.467 | 0.43 | 0.527 | 0.328 | 0.756 | 0.716 | 0.712 | 0.644 | 0.528 | 0.942 | 0.911 | 0.874 | 0.865 | 0.89 | 0.653 | 0.824 | 0.721 | 0.522 | 0.45 |
| NCI-H460 | 0.0376 | 0.0412 | 0.0317 | 0.0182 | 0.0137 | 0.781 | 0.672 | 0.657 | 0.467 | 0.214 | 0.86 | 0.592 | 0.247 | 0.0187 | 0.0161 | 0.659 | 0.635 | 0.561 | 0.177 | 0.0853 |
| NCI-H3122 | 0.0793 | 0.117 | 0.102 | 0.0975 | 0.0943 | 1.02 | 0.922 | 0.891 | 1.27 | 0.847 | 1.02 | 1 | 1.02 | 1 | 0.958 | 0.964 | 1.03 | 0.894 | 0.989 | 0.952 |
| NCI-H2347 | 0.385 | 0.547 | 0.527 | 0.415 | 0.439 | 0.492 | 0.365 | 0.457 | 0.487 | 0.281 | 0.988 | 1.17 | 0.975 | 0.756 | 0.781 | 0.618 | 0.895 | 0.668 | 0.686 | 0.58 |
| NCI-H1944 | 0.725 | 0.733 | 0.751 | 0.674 | 0.651 | 0.403 | 0.377 | 0.363 | 0.373 | 0.352 | 0.872 | 0.827 | 0.857 | 0.693 | 0.841 | 0.512 | 0.573 | 0.451 | 0.483 | 0.46 |
| EKVX | 0.784 | 1.02 | 0.828 | 0.847 | 0.834 | 0.862 | 0.696 | 0.734 | 0.554 | 0.631 | 0.233 | 0.234 | 0.228 | 0.188 | 0.182 | 0.719 | 0.844 | 0.794 | 0.725 | 0.486 |
| NCI-H1355 | 0.697 | 0.829 | 0.686 | 0.605 | 0.732 | 0.409 | 0.329 | 0.374 | 0.377 | 0.286 | 0.952 | 1.08 | 0.963 | 0.888 | 0.856 | 0.838 | 0.741 | 0.741 | 0.673 | 0.72 |
| NCI-H596 | 0.933 | 1.21 | 0.838 | 0.821 | 1.02 | 0.699 | 0.535 | 0.647 | 0.711 | 0.462 | 1.08 | 1.1 | 1.05 | 0.943 | 1.03 | 1.13 | 1.12 | 0.987 | 0.986 | 0.959 |
| EPLC-272H | 0.209 | 0.262 | 0.339 | 0.259 | 0.253 | 0.269 | 0.268 | 0.267 | 0.329 | 0.333 | 0.918 | 0.906 | 0.919 | 0.944 | 0.989 | 0.337 | 0.182 | 0.164 | 0.221 | 0.241 |
| PC-14 | 0.173 | 0.181 | 0.122 | 0.14 | 0.116 | 0.786 | 0.787 | 0.746 | 1.24 | 0.522 | 0.353 | 0.351 | 0.293 | 0.286 | 0.302 | 0.387 | 0.366 | 0.519 | 0.259 | 0.15 |
| NCI-H322M | 0.635 | 0.846 | 0.858 | 0.401 | 0.357 | 0.53 | 0.592 | 0.562 | 0.582 | 0.47 | 0.636 | 0.563 | 0.547 | 0.521 | 0.569 | 0.514 | 0.546 | 0.6 | 0.502 | 0.429 |
| NCI-H1395 | 0.674 | 0.765 | 0.476 | 0.697 | 0.648 | 0.721 | 0.581 | 0.601 | 0.635 | 0.629 | 0.921 | 0.986 | 0.949 | 0.803 | 0.607 | 0.414 | 0.435 | 0.421 | 0.347 | 0.377 |
| PC-3 [JPC-3] | 0.661 | 0.748 | 0.683 | 0.714 | 0.615 |  | 0.756 | 0.711 | 0.787 | 0.704 | 0.455 | 0.444 | 0.46 | 0.451 | 0.448 | 0.901 | 0.927 | 0.96 | 0.762 | 0.585 |
| NCI-H1975 | 0.139 | 0.183 | 0.249 | 0.167 | 0.178 | 0.797 | 0.756 | 0.692 | 0.635 | 0.333 | 0.887 | 0.902 | 0.719 | 0.253 | 0.202 | 0.738 | 0.623 | 0.764 | 0.599 | 0.391 |
